Laboratory results reported in article PMC10537105, “Derivatives Incorporating Acridine, Pyrrole, and Thiazolidine Rings as Promising Antitumor Agents” (Molecules, 2023).
Read-outs that look alike come from different tables or passages of the source.

What was measured:
BJ-5ta = test: MTT assay, BJ-5ta normal fibroblasts; type: cell-based, human; conditions: 72 h of incubation, normal cell line, read-out: IC50 values ± SD, BJ-5ta
Source text: (§1) The impact of acridine spiro derivatives 6–10 (Figure 13) on the metabolic activity of various tumor cell lines HCT-116 (human colorectal carcinoma), Jurkat (human leukemia cells), HeLa (human cervical adenocarcinoma), MDA-MB-231, and MCF-7 (human breast adenocarcinoma), and normal cell lines COS-7 (monkey kidney cells) and BJ-5ta (skin fibroblasts) was investigated using the MTT assay. This assay measures the conversion of yellow 3-(4,5-dimethylthiazol-2-yl)-2,5-diphenyltetrazolium bromide (MTT) to insoluble purple formazan by metabolically active cells. The antiproliferative activities of the tested compounds were determined based on the results from the MTT assay, and the inhibitory concentration values (IC50) are presented in Table 5.
(§2) The human cancer cell lines employed in this study were sourced from reputable institutions, including the American Type Culture Collection (ATCC; Manassas, VA, USA) and the European Collection of Authenticated Cell Cultures (ECACC, Salisbury, UK). Specifically, HeLa (93021013, human cervical adenocarcinoma), HCT116 (CCL-247TM, human colorectal carcinoma), and Jurkat (88042803, human leukemic T-cell lymphoma) were cultured in RPMI 1640 medium (Biosera, Kansas City, MO, USA). In contrast, MCF-7 (HTB-22TM, human breast adenocarcinoma, ER+), MDA-MB-231 (HTB-26TM, human breast adenocarcinoma, ER−), and COS-7 (CRL-1651TM, kidney fibroblasts) were nurtured in high-glucose Dulbecco’s Modified Eagle Medium (DMEM) supplemented with sodium pyruvate (Biosera). Furthermore, BJ-5ta (CRL-4001TM, human dermal fibroblasts) was cultured in a composite medium of high-glucose DMEM and M199 (4:1) (Biosera), supplemented with Hygromycin B (0.01 mg/mL; Merck, Darmstadt, Germany). All culture media were enriched with a 10% fetal bovine serum (FBS; Gibco, Thermo Scientific, Rockford, IL, USA) and an antibiotic/antimycotic solution (Merck) to ensure optimal growth conditions. The cells were meticulously maintained within a humidified environment containing 5% CO2 at 37 °C. Regular screenings for mycoplasma contamination were conducted using Hoechst 33342 staining (Merck), confirming the integrity of the cell lines.
(§3) To assess the antiproliferative impact of the synthesized compounds 6–10, their half-maximal inhibitory concentration (IC50) and the MTT colorimetric assay were employed. MDA-MB-231 and MCF-7 cells were seeded into 96-well microplates (SARSTEDT, Nümbrecht, Germany) at a density of 5 × 10^3 cells per well. After 24 h of cell seeding, various concentrations (100, 50, and 10 µmol/L) of acridine derivatives 6–10 were introduced, alongside cisplatin (utilized as a reference) at concentrations of 5, 10, 20, 50, and 100 µmol/L. Subsequent to 24, 48, and 72 h of treatment, the cells in each well underwent incubation with MTT (5 mg/mL, Sigma-Aldrich Chemie, Steinheim, Germany) for 4 h at 37 °C in the dark. During this period, mitochondrial oxidoreductases metabolized MTT, forming insoluble formazan. Following this, 100 µL of SDS (10% […]) was added to dissolve the formazan crystals, and the cells were incubated for an additional 12 h. Absorbance at 540 nm was measured using the automated Cytation™ 3 Cell Imaging Multi-Mode Reader (Biotek, Winooski, VT, USA). Each test was performed in triplicate, and three independent experiments were conducted to ensure precision and reliability.

MCF-7 = test: MTT assay, MCF-7 cells; type: cell-based, human; conditions: read-out: IC50 values ± SD, MCF-7
Source text: as §1, §2, §3

HeLa = test: MTT assay, HeLa cells; type: cell-based, human; conditions: 72 h of incubation, read-out: IC50 values ± SD, HeLa
Source text: as §1, §2, §3

HCT-116 = test: MTT assay, HCT-116 cells; type: cell-based, human; conditions: MTT, 72 h of incubation, read-out: IC50 values ± SD, HCT-116
Source text: as §1, §2, §3

MDA-MB-231 = test: MTT assay, MDA-MB-231 cells; type: cell-based, human; conditions: read-out: IC50 values ± SD, MDA-MB-231
Source text: as §1, §2, §3

COS-7 = test: MTT assay, COS-7 normal cells; type: cell-based, monkey; conditions: normal cell line, read-out: IC50 values ± SD, COS-7
Source text: as §1, §2, §3

Jurkat = test: MTT assay, Jurkat cells; type: cell-based, human; conditions: MTT, 72 h of incubation, read-out: IC50 values ± SD, Jurkat
Source text: as §1, §2, §3

[1] = Homo sapiens, MCF7, 72 h of incubation
[2] = Homo sapiens, MDA-MB-231, 72 h of incubation
[3] = Primates, COS-7, 72 h of incubation

melting point | IC50 (MCF-7; [1]) [µM] | IC50 (HeLa; Homo sapiens, HeLa) [µM] | IC50 (HCT-116; Homo sapiens, HCT-116) [µM] | IC50 (MDA-MB-231; [2]) [µM] | IC50 (Jurkat; Homo sapiens, Jurkat) [µM] | Structure (SMILES) | IC50 (BJ-5ta) [µM] | IC50 (MCF-7; 72 h of incubation) [µM] | IC50 (HeLa) [µM] | IC50 (HCT-116) [µM] | IC50 (MDA-MB-231; 72 h of incubation) [µM] | IC50 (COS-7; 72 h of incubation) [µM] | IC50 (Jurkat) [µM] | IC50 (BJ-5ta; Homo sapiens, Fibroblast) [µM] | IC50 (COS-7; [3]) [µM]
 |  |  |  |  |  | N.N.[Cl][Pt][Cl] [Cisplatin, cisplatin, reference compound] | 36 ± 1.87 | 26.5 ± 3.19 | 35.4 ± 2.5 | 12.4 ± 2.1 | 7.1 ± 0.9 | 24.6 ± 1.4 | 8.18 ± 1.6 |  | 
249 to 252 °C (dec.) | 32.5 ± 6.5 | 62.5 ± 14 | 46.6 ± 2.66 | > 100 | > 100 | N#CC1=CC2(c3ccccc3Nc3ccccc32)N(/N=C2\SCC(=O)N2c2ccc(F)cc2)C1=O [7d, 1′-{[(2Z)-3-(4-Fluorophenyl)-4-oxo-1,3-thiazolidin-2-ylidene]amino}-5′-oxo-1′,5′-dihydro-10H-spiro[acridine-9,2′-pyrrole]-4′-carbonitrile] |  |  |  |  |  |  |  | > 100 | > 100
249 to 251 °C (dec.) | 91.3 ± 3.74 | > 100 | > 100 | > 100 | > 100 | CCCC1S/C(=N\N2C(=O)C(C#N)=CC23c2ccccc2Nc2ccccc23)N(c2ccc([N+](=O)[O-])cc2)C1=O (centres unmarked) [10e, 1′-{[(2Z)-3-(4-Nitrophenyl)-4-oxo-5-propyl-1,3-thiazolidin-2-ylidene]amino}-5′-oxo-1′,5′-dihydro-10H-spiro[acridine-9,2′-pyrrole]-4′-carbonitrile] |  |  |  |  |  |  |  | > 100 | > 100
 | 12.8 ± 4.24 | 16.9 ± 3.5 | 5.37 ± 0.01 | 7.43 ± 0.72 | 5.67 ± 0.03 | CCOC(=O)/C=C1\S/C(=N\N2C(=O)C(C#N)=CC23c2ccccc2Nc2ccccc23)N(c2ccc(OC)cc2)C1=O [8b, Ethyl 2-[(2Z,5Z)-2-({4′-cyano-5′-oxo-1′,5′-dihydro-10H-spiro[acridine-9,2′-pyrrol]-1′-yl}imino)-3-(4-methoxyphenyl)-4-oxo-1,3-thiazolidin-5-ylidene]acetate] |  |  |  |  |  |  |  | 6.82 ± 0.24 | 11.5 ± 1.74
244 to 247 °C (dec.) | > 100 | > 100 | 46.2 ± 2.02 | > 100 | 35.5 ± 2.31 | N#CC1=CC2(c3ccccc3Nc3ccccc32)N(/N=C2\SCC(=O)N2c2ccc([N+](=O)[O-])cc2)C1=O [7e, 1′-{[(2Z)-3-(4-Nitrophenyl)-4-oxo-1,3-thiazolidin-2-ylidene]amino}-5′-oxo-1′,5′-dihydro-10H-spiro[acridine-9,2′-pyrrole]-4′-carbonitrile] |  |  |  |  |  |  |  | > 100 | > 100
238 to 240 °C (dec.) | > 100 | > 100 | > 100 | > 100 | > 100 | CCCC1S/C(=N\N2C(=O)C(C#N)=CC23c2ccccc2Nc2ccccc23)N(c2ccccc2)C1=O (centres unmarked) [10a, 5′-Oxo-1′-{[(2Z)-4-oxo-3-phenyl-5-propyl-1,3-thiazolidin-2-ylidene]amino}-1′,5′-dihydro-10H-spiro[acridine-9,2′-pyrrole]-4′-carbonitrile] |  |  |  |  |  |  |  | > 100 | > 100
170 to 173 °C (dec.) | > 100 | > 100 | > 100 | > 100 | 34.4 ± 2.13 | CC1S/C(=N\N2C(=O)C(C#N)=CC23c2ccccc2Nc2ccccc23)N(c2ccc([N+](=O)[O-])cc2)C1=O (centres unmarked) [9e, 1′-{[(2Z)-5-Methyl-3-(4-nitrophenyl)-4-oxo-1,3-thiazolidin-2-ylidene]amino}-5′-oxo-1′,5′-dihydro-10H-spiro[acridine-9,2′-pyrrole]-4′-carbonitrile] |  |  |  |  |  |  |  | > 100 | > 100
 | > 100 | > 100 | 41.5 ± 4.77 | > 100 | 39.9 ± 5.19 | COc1ccc(NC(=S)NN2C(=O)C(C#N)=CC23c2ccccc2Nc2ccccc23)cc1 [6b, 3-{4′-Cyano-5′-oxo-1′,5′-dihydro-10H-spiro[acridine-9,2′-pyrrol]-1′-yl}-1-(4-methoxyphenyl)thiourea] |  |  |  |  |  |  |  | > 100 | > 100
241 to 243 °C (dec.) | 21.62 ± 0.1 | 51.2 ± 3.32 | 41.3 ± 2.3 | > 100 | > 100 | N#CC1=CC2(c3ccccc3Nc3ccccc32)N(/N=C2\SCC(=O)N2c2ccccc2)C1=O [7a, 5′-Oxo-1′-{[(2Z)-4-oxo-3-phenyl-1,3-thiazolidin-2-ylidene]amino}-1′,5′-dihydro-10H-spiro[acridine-9,2′-pyrrole]-4′-carbonitrile] |  |  |  |  |  |  |  | > 100 | > 100
245 to 249 °C (dec.) | > 100 | > 100 | > 100 | > 100 | > 100 | CC1S/C(=N\N2C(=O)C(C#N)=CC23c2ccccc2Nc2ccccc23)N(c2ccccc2)C1=O (centres unmarked) [9a, 1′-{[(2Z)-5-Methyl-4-oxo-3-phenyl-1,3-thiazolidin-2-ylidene]amino}-5′-oxo-1′,5′-dihydro-10H-spiro[acridine-9,2′-pyrrole]-4′-carbonitrile] |  |  |  |  |  |  |  | > 100 | > 100
235 to 239 °C (dec.) | > 100 | > 100 | > 100 | > 100 | > 100 | CC1S/C(=N\N2C(=O)C(C#N)=CC23c2ccccc2Nc2ccccc23)N(c2ccc(F)cc2)C1=O (centres unmarked) [9d, 1′-{[(2Z)-3-(4-Fluorophenyl)-5-methyl-4-oxo-1,3-thiazolidin-2-ylidene]amino}-5′-oxo-1′,5′-dihydro-10H-spiro[acridine-9,2′-pyrrole]-4′-carbonitrile] |  |  |  |  |  |  |  | > 100 | > 100
230 to 232 °C (dec.) | > 100 | > 100 | > 100 | > 100 | > 100 | CCCC1S/C(=N\N2C(=O)C(C#N)=CC23c2ccccc2Nc2ccccc23)N(c2ccc(F)cc2)C1=O (centres unmarked) [10d, 1′-{[(2Z)-3-(4-Fluorophenyl)-4-oxo-5-propyl-1,3-thiazolidin-2-ylidene]amino}-5′-oxo-1′,5′-dihydro-10H-spiro[acridine-9,2′-pyrrole]-4′-carbonitrile] |  |  |  |  |  |  |  | > 100 | > 100
217 to 220 °C (dec.) | 45.14 ± 0.04 | 54 ± 0.72 | 24.4 ± 1.31 | 39.7 ± 2.4 | 22.1 ± 0.43 | COc1cccc(N2C(=O)CS/C2=N\N2C(=O)C(C#N)=CC23c2ccccc2Nc2ccccc23)c1 [7c, 1′-{[(2Z)-3-(3-Methoxyphenyl)-4-oxo-1,3-thiazolidin-2-ylidene]amino}-5′-oxo-1′,5′-dihydro-10H-spiro[acridine-9,2′-pyrrole]-4′-carbonitrile] |  |  |  |  |  |  |  | 38 ± 1.44 | 55.2 ± 5.38
